Laboratory results as given in ChEMBL document CHEMBL3885861, “Open TG-GATES”.

Species on record: Rattus norvegicus
Assay: Open TG-GATES - Regimen: Single
Assay type: toxicity, organism-based, Sprague-Dawley
Set-up: regimen Single, gender Male, age 6 weeks
Conditions: in vivo, po, 5 mg/kg, route gavage, dose level Low; for APTT / Bas / Eos / Fbg / Hb / Ht / Lym / MCH / MCHC / MCV / Mono / Neu / PT / Plat / RBC / Ret / WBC: tissue Blood; for KIDNEY_L / KIDNEY_R / KIDNEY_TOTAL: tissue Kidney; for LIVER: tissue Liver; for A/G / ALP / ALT / AST / BUN / CRE / Ca / Cl / DBIL / GLC / IP / K / LDH / Na / PL / RALB / TBIL / TC / TG / TP / gamma-GTP: tissue Plasma

Structure (SMILES): CC(=N)S [THIOACETAMIDE]
- TERMINAL_BW (3 h): 189.9 g
- APTT (3 h): 17.2 s
- Bas (3 h): 0%
- Eos (3 h): 0.6%
- Fbg (3 h): 225 mg/dL
- Hb (3 h): 13.1 g/dL
- Ht (3 h): 39.7%
- Lym (3 h): 81.4%
- MCH (3 h): 21.3 pg
- MCHC (3 h): 32.9%
- MCV (3 h): 64.6 fL
- Mono (3 h): 6.4%
- Neu (3 h): 11.4%
- PT (3 h): 12.1 s
- Plat (3 h): 105.8 x10_4/uL
- RBC (3 h): 614.6 x10_4/ul
- Ret (3 h): 9.2%
- WBC (3 h): 119.1 x10_2/uL
- KIDNEY_L (3 h): 0.9 g
- KIDNEY_R (3 h): 0.9 g
- KIDNEY_TOTAL (3 h): 1.7 g
- LIVER (3 h): 8.7 g
- A/G (3 h): 2.1
- ALP (3 h): 842.8 IU/L
- ALT (3 h): 31.2 IU/L
- AST (3 h): 64 IU/L
- BUN (3 h): 12.2 mg/dL
- CRE (3 h): 0.5 mg/dL
- Ca (3 h): 10.9 mg/dL
- Cl (3 h): 103.4 meq/L
- DBIL (3 h): 0 mg/dL
- GLC (3 h): 179.8 mg/dL
- IP (3 h): 9.2 mg/dL
- K (3 h): 4.4 meq/L
- LDH (3 h): 97.6 IU/L
- Na (3 h): 138.2 meq/L
- PL (3 h): 149.6 mg/dL
- RALB (3 h): 3.8 g/dL
- TBIL (3 h): 0.3 mg/dL
- TC (3 h): 85.8 mg/dL
- TG (3 h): 70.6 mg/dL
- TP (3 h): 5.6 g/dL
- gamma-GTP (3 h): 2 IU/L
- TERMINAL_BW (6 h): 185.4 g
- APTT (6 h): 17.8 s
- Bas (6 h): 0%
- Eos (6 h): 1%
- Fbg (6 h): 237.8 mg/dL
- Hb (6 h): 13.2 g/dL
- Ht (6 h): 40.2%
- Lym (6 h): 70.4%
- MCH (6 h): 21.2 pg
- MCHC (6 h): 32.9%
- MCV (6 h): 64.4 fL
- Mono (6 h): 9.4%
- Neu (6 h): 19%
- PT (6 h): 12.4 s
- Plat (6 h): 113.6 x10_4/uL
- RBC (6 h): 625.4 x10_4/ul
- Ret (6 h): 9.1%
- WBC (6 h): 94.9 x10_2/uL
- KIDNEY_L (6 h): 0.9 g
- KIDNEY_R (6 h): 0.9 g
- KIDNEY_TOTAL (6 h): 1.8 g
- LIVER (6 h): 8.2 g
- A/G (6 h): 2.2
- ALP (6 h): 729.4 IU/L
- ALT (6 h): 29.8 IU/L
- AST (6 h): 62.4 IU/L
- BUN (6 h): 10.2 mg/dL
- CRE (6 h): 0.6 mg/dL
- Ca (6 h): 10.4 mg/dL
- Cl (6 h): 104.4 meq/L
- DBIL (6 h): 0.002 mg/dL
- GLC (6 h): 179.6 mg/dL
- IP (6 h): 9 mg/dL
- K (6 h): 4.9 meq/L
- LDH (6 h): 76 IU/L
- Na (6 h): 137.2 meq/L
- PL (6 h): 132.2 mg/dL
- RALB (6 h): 3.8 g/dL
- TBIL (6 h): 0.4 mg/dL
- TC (6 h): 80.2 mg/dL
- TG (6 h): 41.4 mg/dL
- TP (6 h): 5.6 g/dL
- gamma-GTP (6 h): 1.2 IU/L
